Experimental findings from publication PMC11459959, “Discovery of new acetamide derivatives of 5-indole-1,3,4-oxadiazol-2-thiol as inhibitors of HIV-1 Tat-mediated viral transcription” (Antimicrobial Agents and Chemotherapy, 2024) are described below.

Where two headings read alike, the source gives them in different places.

Series [1] has as its system TZM-bl cells. The experiment in a line: Cell viability of TZM-bl cells (PrestoBlue). It is filed as cell-based.
Description: The TZM-bl cells (also referred to as JC53BL-13) expressing human CD4, CXCR4, and CCR5 carrying the F-Luc and lacZ genes downstream of the HIV-1 LTR promoter ([60]) were used to determine the inhibitory effect of the compounds on HIV-1 infection, as previously described ([11], [12], [61]). In brief, 1 × 10^4 cells were cultured in 96-well plates for 24 h and subsequently treated with compounds at the indicated concentrations. Without replacement of the culture medium, the cells were subsequently infected with the HIV-1NL4-3 wild-type or ARV-resistant HIV-1 strains at an MOI of 1 to determine the exact inhibitory effect of compounds on a single-round infection. After 48 h, the inhibitory effect of the compounds was determined using a Bright Glo luciferase assay kit (Promega) or β-Galactosidase Enzyme Assay kit (Promega). The infectivity data were presented as a percentage relative to the dimethyl sulfoxide (DMSO) control (vehicle). Cell viability was determined using the resazurin-based PrestoBlue Cell Viability Reagent (Thermo Fisher Scientific, Waltham, MA, USA) following the manufacturer’s instructions.
Series [2] relates to general cellular transcription/translation (R-Luc). The experiment in a line: Dual-reporter assay, R-Luc in bl-DTR cells. Particulars: doxycycline, 24 h. The format is cell-based. How it is done: (§1) Fig 1 (A) (Top panel) Schematic representation of the primary compound screening using a dual-reporter system. […] (B). […] (Top graphs) bl-DTR cells (1 × 10^4) were treated with twofold serial dilutions of each compound before doxycycline (Dox) addition (final concentration, 50 ng/mL). After 24 h of treatment, the activities of firefly luciferase (F-Luc, red line) and Renilla luciferase (R-Luc, blue line) were determined using the Dual-Glo Luciferase assay system. (Bottom graphs) TZM-bl cells were treated with each indicated compound and subsequently infected with the HIV-1NL4-3 strain at a multiplicity of infection (MOI) of 1. At 48 h after infection, the viral infectivity (purple line) and cell viability (green line) were determined using the Bright-Glo luciferase assay kit and the PrestoBlue Cell Viability Reagent, respectively. […] (C). […] The targeted moieties for the SAR study are marked with dotted-circle lines.
(§2) The Tzm-bl-derived dual Tat reporter; TZM-bl/Tat/Rluc (bl-DTR) cells were established from TZM-bl cells using two Dox-inducible lentiviral expression cassettes cloned with Flag-tagged Tat86 and the R-Luc gene, as described in our previous study ([11]). TZM-bl, A3.01, J1.1, and J-Lat 6.3 cells as well as the HIV-1 molecular clone pNL4-3, pNL(AD8), ARV-resistant HIV-1 strains, and HIV-1NL43-IRES-eGFP (pBR43IeG-nef^+, gifted by Dr. Frank Kirchhoff) ([52]) were provided by the National Institute of Health HIV Reagent Program (NIH, Bethesda, MD, USA). HeLa (CCL-2) and 293T (CRL-3216) cell lines were purchased from the American Type Culture Collection (ATCC, Manassas, VA, USA). The bl-DTR, TZM-bl, HeLa, and 293T cells were cultured in Dulbecco’s modified Eagle’s medium supplemented with 1% penicillin–streptomycin and 10% (vol/vol) heat-inactivated fetal bovine serum (all from Gibco-BRL, Gaithersburg, MD, USA), and 1 µg/mL of puromycin and 200 µg/mL of zeocin were additionally supplemented for the bl-DTR cells. PBMCs were purchased from AllCells (Alameda, CA, USA) and cultured as previously described ([12]). The information on ARV-resistant HIV-1 strains was described in previous reports as follows: NNRTI-resistant 12241 and 12243 ([53]); NRTI-resistant 7396, 7406, and 7407 ([54]); INSTI-resistant 11847 and 11849 ([55], [56]); and PI-resistant 11800 and 11803 ([57]). Each molecular HIV-1 clone was transfected to 293T cells, as previously described ([58]), to obtain infectious HIV-1 particles. Virus-containing cell culture supernatants were collected 3 days after transfection, and filtered through a 0.45-µm membrane filter (Millipore Sigma, Burlington, MA, USA) to remove cell debris. The viral titration was performed as described previously ([59]) with some minor modifications. In brief, 1 × 10^4 TZM-bl cells seeded in 96-well plates were infected with 200 µL of virus-containing medium diluted serially twofold. The incubation was for 2 days and the experiment was performed in triplicate; the infection time minimized the virus spread ([59]). The titration of the infectious viral particles was performed with a ß-Gal staining assay using the ßeta-Galactosidase Staining Kit (Mirus Bio, Madison, WI, USA) following the manufacturer’s protocols. In brief, the infected cells were washed with phosphate-buffered saline (PBS) and fixed using a Cell Fixative Working solution. The cells were washed with PBS and stained using the Cell Staining Working Solution containing X-gal. The infected blue-colored cells were counted under a microscope (100× magnification). The infectious virus titer was determined as a mean value of blue-colored cells count × dilution factor and used for determining the multiplicity of infection (MOI) in each infection experiment.

The test system of series [3] is HIV-1NL4-3. The experiment in a line: HIV-1 infectivity in TZM-bl cells (F-Luc). The format is cell-based. The note with it: for EC50: read-out: EC50.
Series [4] concerns Tat-mediated LTR transcription. The experiment in a line: Dual-reporter assay, F-Luc (Tat-mediated LTR transcription) in bl-DTR cells. It is filed as cell-based, HIV-1. The note with it: bl-DTR cells, doxycycline 50 ng/mL, 24 h; mean ± SD; read-out: IC50 of F-Luc (Tat). How it is done:
as §1, §2

Series [5] deals with HIV-1NL4-3. The experiment in a line: Time-of-addition assay in TZM-bl cells. The format is cell-based. Particulars: HIV-1NL4-3 MOI 1, 9 and 13 1.5 μM, T-20 1 µM, triptolide 5 nM, ARVs 1 µM, F-Luc at 54 h. How it is done: Fig 5 (A) Time-of-addition assay. […] Subsequently, the cells were treated with the compounds at the indicated time points (0, 1, 2, 4, 6, 8, 10, 12, 24, 30, 36, 42, and 48 h) after HIV-1 infection. The final concentrations of compounds are described in Materials and Methods. Viral activity according to the timing of drug addition was measured as F-Luc activity at 54 h after infection. The relative activities are represented as the mean ± SD (n = 3) compared with the activity observed 54 h post-infection. The relative time frames associated with each HIV-1 infection step are defined based on the time frame of susceptibility to the drug that blocks that particular infection step. […] At 16 h after infection, the viral reverse transcription (RT) product (viral cDNA) level was determined by quantitative real-time PCR (RT-qPCR) using gag and 18S rRNA primer sets and represented as the mean ± SD (n = 3) normalized against the amount of the 18S rRNA compared with the DMSO control. **P < 0.01 compared with the vehicle (DMSO). (C) An in vitro integrase (IN) assay was performed with 10 µM of the indicated compounds following the manufacturer’s protocol. **P < 0.01 compared with vehicle (DMSO). (D) A3.01 cells were infected with HIV-1 upon treatment with the indicated compounds (5 µM) and ARVs (EFV and DTG) as the experimental controls. At 40 h after infection, cellular chromosomal DNA was purified, and the integrated proviral DNA was detected through nested Alu-PCR amplification.
A time-of-addition assay was performed as previously described ([25]) with minor modifications. […] Reference drug and test compounds were subsequently added at the indicated time (0, 1, 2, 4, 6, 8, 10, 12, 24, 30, 36, 42, and 48 h after infection). Final concentrations were as follows: compounds 9 and 13 (1.5 μM), T-20 (1 µM), Triptolide (5 nM), and ARVs (AZT, EFV, DTG, RAL) (1 µM). The viral activity according to the timing of drug addition was measured using a Bright Glo luciferase assay kit (Promega). Virus activity curves present a % activity relative to the activity observed at 54 h after infection, and the data are presented as the mean ± standard deviation (SD) (n = 3). The relative time frame associated with each HIV-1 infection step was defined based on the sensitivity to each drug that blocks a particular infection step.

Series [6] deals with INSTI-resistant HIV-1 strain 11847. The experiment in a line: microbe, parasite or virus in culture. The note with it: Human immunodeficiency virus 1, TZM-bl. It is filed as cell-based.
Series [7] concerns INSTI-resistant HIV-1 strain 11849. The experiment in a line: microbe, parasite or virus in culture. Particulars: Human immunodeficiency virus 1, TZM-bl. The format is cell-based.

Usually CC50 stands for the concentration that lowers cell viability or growth by half. For the molecule `Cc1[nH]c2ccc(-c3nnc(SC(C)C(=O)N4CCCC4)n3CCc3ccccc3)cc2c1C` (centres unmarked) [Compound 32, 2-((5-(2,3-Dimethyl-1H-indol-5-yl)-4-phenethyl-4H-1,2,4-triazol-3-yl)thio)-1-(pyrrolidin-1-yl)propan-1-one], in series [1] (human, 48 h), the CC50 worked out at 63.20 ± 2.65 µM. Also, the “Relative R-Luc activity at IC50 of F-Luc” value in series [2] came to 90.

Usually EC50 stands for the concentration that produces a half-maximal response. For orientation: IC50 means the point on the concentration scale where inhibition reaches its midpoint. With “5-(2,3-Dimethyl-1H-indol-5-yl)-4-phenethyl-4H-1,2,4-triazole-3-thiol [Compound 29]”, the “SI (CC50/EC50)” value in series [3] (TZM-bl cells) is on record as 164.33. For the same molecule, in series [3] (TZM-bl cells infected with HIV-1NL4-3 at MOI 1, 48 h, F-Luc, mean ± SD), the EC50 worked out at 0.39 ± 0.03 µM. Moreover, in series [4], the IC50 was found to be 0.43 ± 0.03 µM. The CC50 in series [1] (TZM-bl cells, absence of HIV-1 infection, mean ± SD, read-out: CC50) was determined as 64.1 ± 6.31 µM. Also, in series [2], the “Relative R-Luc activity at IC50 of F-Luc” value was 90.

`Cc1nnc(C(=O)NC(C)(C)c2nc(C(=O)NCc3ccc(F)cc3)c(O)c(=O)n2C)o1` [RAL, raltegravir, reference compound]: the EC50 in series [3] (Human immunodeficiency virus 1, TZM-bl, Table S1, WT virus, TZM-bl) was below 0.001 µM; in series [6], 4.99 ± 0.2 µM; in series [7], 14.3 ± 2.59 µM. Further, in series [5], the “time of administration after infection at which effectiveness began to decrease / was lost” value came out at 10 h.
